# According to patent US4061639A, “Quinolinesulfonyl compounds” (The Dow Chemical Company, priority 1976, dated 1977):
# How the values were obtained:
# Experiment in all cases: agar dilution antimicrobial test (growth inhibition)
# Format in all cases: cell-based
# [1] = tested on: A. aerogenes; conditions: Klebsiella aerogenes, read-out: Percent Growth Inhibition
# Protocol: (§1) In representative activity tests, 8-quinolinesulfonyl bromide is dispersed in warm melted nutrient agar which is then poured into petri dishes and allowed to solidify, the quinoline compound being employed in an amount sufficient to provide from 10 to 500 parts by weight thereof per million parts (ppm) of the ultimate agar composition. The surface of the agar is then inoculated with a variety of bacterial and fungal pest organisms, and the inoculated plates are incubated under conditions conducive to bacterial and fungal growth. Similar check plates in which the agar contains no active quinoline or other toxic compound are similarly inoculated and incubated.
# (§2) In such operations, 8-quinolinesulfonyl bromide gave 100% growth inhibition (kills) and control of the following organisms at the indicated concentrations in parts per million:
# (§3) In comparative operations, 8-quinolinesulfonyl chloride was tested for antimicrobial activity at 500 ppm using identical agar dilution tests. The following table indicates the percent growth inhibition of the following organisms: […]
# [2] = tested on: B. subtilis; conditions: Bacillus subtilis, read-out: Percent Growth Inhibition
# Protocol: as §1, §2, §3
# [3] = tested on: C. albicans; conditions: Candida albicans, read-out: Percent Growth Inhibition
# Protocol: as §1, §2, §3
# [4] = tested on: C. ips; conditions: read-out: Percent Growth Inhibition
# Protocol: as §1, §2, §3
# [5] = tested on: C. pelliculosa; conditions: Hansenula anomala, read-out: Percent Growth Inhibition
# Protocol: as §1, §2, §3
# [6] = tested on: E. coli; conditions: Escherichia coli, read-out: Percent Growth Inhibition
# Protocol: as §1, §2, §3
# [7] = tested on: M. phlei; conditions: Mycolicibacterium phlei, read-out: Percent Growth Inhibition
# Protocol: as §1, §2, §3
# [8] = tested on: P. Str-10; conditions: read-out: Percent Growth Inhibition
# Protocol: as §1, §2, §3
# [9] = tested on: P. pullulans; conditions: read-out: Percent Growth Inhibition
# Protocol: as §1, §2, §3
# [10] = tested on: R. nigricans; conditions: Rhizopus stolonifer, read-out: Percent Growth Inhibition
# Protocol: as §1, §2, §3
# [11] = tested on: S. aureus; conditions: Staphylococcus aureus, read-out: Percent Growth Inhibition
# Protocol: as §1, §2, §3
# [12] = tested on: S. typhosa; conditions: read-out: Percent Growth Inhibition
# Protocol: as §1, §2, §3
# [13] = tested on: Trichoderm Sp. Madison P-42; conditions: read-out: Percent Growth Inhibition
# Protocol: as §1, §2, §3
smiles,measurement,setting,value
"O=S(=O)(Cl)c1cccc2cccnc12 [8-Quinolinesulfonyl Chloride, 8-quinolinesulfonyl chloride]",inhibition at 500 ppm,[1],0%
same,inhibition at 500 ppm,[2],0%
same,inhibition at 500 ppm,[3],0%
same,inhibition at 500 ppm,[4],0%
same,inhibition at 500 ppm,[5],0%
same,inhibition at 500 ppm,[6],0%
same,inhibition at 500 ppm,[7],50%
same,inhibition at 500 ppm,[8],0%
same,inhibition at 500 ppm,[9],0%
same,inhibition at 500 ppm,[10],0%
same,inhibition at 500 ppm,[11],0%
same,inhibition at 500 ppm,[12],0%
same,inhibition at 500 ppm,[13],0%
